Bounds are passed on as bounds.

A short description of data set [1]: change with time of residual concentration of specific component A in test liquid (HPLC). In kind it is physicochemical. The note with it: 50 mM phosphoric acid buffer solution pH6.8, 37° C., initial 0.1 mg/mL. Here is the method:
The specific component A is an unstable pharmaceutical in an elution test under neutral condition and is sodium rabepranazole. The test liquid used to the elution test is a 50 mM phosphoric acid buffer solution (pH6.8, 37° C.) in order to neutralize the elution condition for the specific component A.

The nature of data set [2]: elution test of the preparation by absorbance measurement method. It counts as physicochemical. The note with it: preparation C containing impurity component B, six specimens. The source says:
The following describes a method for determining the specific component A alone while eliminating the influence of the impurity component B that hinders determination from the test liquid into which the specific component A and the impurity component B are eluted from the preparation C
The wavelengths to be set are 234 nm (λ1) and 287 nm (λ2) as isosbestic point wavelengths in a system including the specific component A and its decomposed matter in the preparation C. Assuming that the absorbances of the specific component A as A234nm(t) and A287nm(t) and the absorbances of the impurity component B as B234nm(t) and B287nm(t), the absorbances of the synthesis spectrum C234nm(t) and C287nm(t) will be represented as follows. C234nm(t)=A234nm(t)+B234nm(t) (3) C287nm(t)=A287nm(t)+B287nm(t) (4) Considering the spectrum of the impurity component B, the ratio of absorbance of the wavelengths of 234 nm and 287 nm is constant and independent of time (or concentration). This obtains the expression (5). B234nm(t)/B287nm(t)=k (5)
k and k′ are constants. From the absorbance measurement values at two isosbestic point wavelengths of the elution test liquid, the concentration of the specific component A alone is obtained by solving the simultaneous equation of the expression (7) and (8). […]

As to `COCCCOc1ccnc(C[S+]([O-])c2nc3ccccc3[n-]2)c1C.[Na+]` (stereo not shown) [specific component A, sodium rabepranazole], in data set [1], the “time for residual concentration to decrease to half the initial concentration” value is ≤ 40 min. Further, the “residual concentration of the specific component A” value in data set [1] (within 40 minutes) worked out at 0.05 mg/mL. In addition, the elution ratio entry is “around 100%” in data set [2] (double-wavelength absorbance measurement method (234 nm and 287 nm)); 140% in data set [2] (single-wavelength absorbance measurement method (234 nm)).

Source of the values: US20060213838A1, “Elution test method and apparatus” (SHIMADZU CORPORATION, priority 2005, published 2006).
